Assay [1] relates to NGAL. The assay can be described thus: Western blot of NGAL protein in SEB-1 sebocytes after retinoid treatment. The note with it: 72 hours, 0.1 nM to 1 μM, maximum with micromolar concentrations. Format: cell-based, human. An excerpt: For Western blotting, mouse monoclonal antibody to lipocalin 2 (NGAL) was obtained from Abeam, Inc., (Cambridge, Mass.). The 24p3R(NGAL receptor) affinity purified antibody, positive (HEK 293 cell lysate) and negative (T47D cell lysate) controls were kindly provided by Dr. Michael Green (University of Massachusetts Medical School). GAPDH (#2118), Cleaved caspase 3 (#9664), β-actin (#4967) and anti-rabbit horseradish peroxidase (HRP) linked secondary antibodies (#7074) were purchased from Cell Signaling Technology (Beverly, Mass.). Secondary Anti-mouse HRP antibody was purchased from Santa Cruz Biotechnology Inc. (Santa Cruz, Calif.).
SEB-1 sebocytes (passages 22-28) were in standard culture medium until 50-75% confluent. Treatments of 13-cis RA (0.1 nM, 1 nM, 10 nM, 0.1 μM, or 1 μM) or ethanol vehicle (0.01% or less) were applied for 48 or 72 hours. In parallel studies, identical concentrations of all-trans retinoic acid (ATRA) were applied for 72 hours. In all experiments, each plate was considered an independent sample and total protein was collected. Blots were incubated with appropriate primary and secondary antibodies followed by densitometry. […] Data was analyzed using a paired t-test and results were considered significant if p<0.05.
Protein expression was verified by western blot at 72 hours of retinoid treatment. […] Blots were analyzed by densitometry and normalized to β-actin. […]
For orientation: Immunoblotting shows a protein as a band on a membrane.

Assay [2] deals with sebaceous glands. Nature of the assay: Histology: sebaceous gland area in patient skin biopsies (H&E, image analysis). Format: in vivo, human. The note with it: one week samples, mean±SEM; baseline 0.23±0.09; not significant (p=0.16).
The test system of assay [3] is LCN2 mRNA. Nature of the assay: QPCR of LCN2 mRNA in SEB-1 sebocytes after retinoid treatment. Format: cell-based, human. The note with it: 48 hours. The method, then: Applied Biosystems' Assays-on-Demand Taqman Universal PCR Master Mix, primer/probe sets, and ABI's 7900HT Fast Real-Time PCR System with 384-well plate block module were used according to manufacturer's instructions (Applied Biosystems, Foster City, Calif.). Integrity of isolated RNA was verified by agarose gel electrophoresis. cDNA was generated from 1 μg of total RNA, primed with oligo-dT, using the Superscript First-Strand Synthesis System for RT-PCR (Invitrogen, Carlsbad, Calif.). Diluted cDNA from the one week samples were run for the reference gene TATA binding protein (TBP) and genes of interest: lipocalin 2, (LCN2) RARRES1, S100A7, SERPINA3 and PLA2G7. For gene array verification, 8 independent samples of SEB-1 sebocytes treated with 0.1 μM 13-cis RA or vehicle alone for 72 hours were analyzed. Genes of interest included: LCN2, RARRES1, insulin-like growth factor binding protein 3 (IGFBP-3), GATA3, ZBTB16 and potential LCN2 cell surface receptor (SLC22A17). Expression of TBP, GAPDH and LCN2 was analyzed in 6 independent SEB-1 samples for the siRNA knockdown experiments. SEB-1 sebocytes treated with increasing concentrations of ATRA (n=5) were analyzed for the reference gene, TBP, and LCN2. […] Data was analyzed using the Relative Expression Software Tool (REST-XL version 1) software program (64) with efficiency correction and a p-value <0.05 was considered significant. […]

Assay [4] concerns sebaceous glands. Nature of the assay: TUNEL-peroxidase assay on patient skin biopsies. In kind it is in vivo, human.
In assay [5] the test system is NGAL. The assay can be described thus: NGAL immunohistochemistry on patient skin sections. In kind it is in vivo, human. The note with it: individual patients 1-6 and average, after one week isotretinoin therapy. How it is done: All sections were counterstained with hematoxylin. […] NC-negative control, consists of a normal human skin incubated with normal mouse IgG1 antibody.

The subject of assay [6] is NGAL. The assay can be described thus: Immunoblot for NGAL in SEB-1 sebocytes after poly (I:C). In kind it is cell-based, human. The note with it: SEB-1, 20 μg/mL, 48 hrs.
Assay [7] concerns SEB-1 sebocytes. The assay can be described thus: TUNEL assay in SEB-1 sebocytes. Format: cell-based, human. The note with it: 24 hours, 1 ng/mL.
Assay [8] concerns P. acnes bacteria. The assay can be described thus: P. acnes percent survival after rhNGAL treatment. The note with it: 1-25 μg/mL, 4 hours, percent survival relative to vehicle.

Data on four molecules can be found in patent publication US9308239B2, “Methods and compositions for treatment of retinoid-responsive conditions” (The Penn State Research Foundation, priority 2008, dated 2016).

“And” between values parts separate entries of the source, which are not always exact repeats. Equal entries are not always repeated.

For the molecule `CC1=C(/C=C/C(C)=C/C=C/C(C)=C/C(=O)O)C(C)(C)CCC1` [ATRA, all-trans retinoic acid], in assay [1], the “NGAL protein expression increase compared to control (maximum)” value is given as 7 fold.

On to `CC1=C(/C=C/C(C)=C/C=C/C(C)=C\C(=O)O)C(C)(C)CCC1` [isotretinoin, 13-cis retinoic acid], for which the “mean area of sebaceous glands” value in assay [2] is recorded as 0.12±0.02 mm^2. The “concentrations that significantly increased LCN2 mRNA levels” value in assay [3] is not below 1 nM. The “increase of LCN2 mRNA levels compared to control” value in assay [3] (micromolar concentrations) is listed as “approximately 6 fold”. The “increase in the percentage of TUNEL positive cells vs baseline” value in assay [4] (one week of therapy compared to baseline) worked out at 4 fold. Further, the “percentage of TUNEL positive cells within the sebaceous gland” value in assay [4] (one week of therapy, mean±SD, n=6 patients, baseline 13.9±6%, p=0.005) is reported as 45.9±11.9%. Besides, the “1-week (% of sebaceous gland positive for NGAL)” value in assay [5] is 27.1% and 1.1% and 12.1% and 1.0% and 36.7% and 11.3%.

Take “Polyinosinic:polycytidylic acid [Poly (I:C)]”: the “NGAL expression in total cell lysate” value in assay [6] is given as “increases”.

B1: rhNGAL: purified recombinant human NGAL protein (amino acids 21-198, R&D Systems); in Example 14 rhNGAL produced in E. coli (protein)
chain: QDSTSDLIPAPPLSKVPLQQNFQDNQFQGKWYVVGLAGNAILREDKDPQKMYATIYELKEDKSYNVTSVLFRKKKCDYWIRTFVPGCQPGEFTLGNIKSYPGLTSYLVRVVSTNYNQHAMVFFKKVSQNREYFKITLYGRTKELTSELKENFIRFSKSLGLPENHIVFPVPIDQCIDG
modifications: human
B1: in assay [7], the “percentage of TUNEL positive cells (maximum)” value is listed as “approximately 35%”. Moreover, the “effect on P. acnes bacteria (FIG. 11)” value in assay [8] is “inhibitory effects”.
